Assay results taken from ChEMBL document CHEMBL4765430, “Endeavors towards transformation of M. tuberculosis thymidylate kinase (MtbTMPK) inhibitors into potential antimycobacterial agents” (Eur J Med Chem, 2020).
Converted amounts (≈) assume the structure as drawn.

What was measured:
[1] = test system: Mycobacterium tuberculosis; assay: Antitubercular activity against Mycobacterium tuberculosis H37Ra incubated for 7 to 14 days under 7H9/glucose medium; type: functional; settings: time 7-14 day
[2] = Inhibition of wild-type Mycobacterium tuberculosis thymidylate kinase expressed in Escherichia coli BLi5 competent cells using dTMP as substrate by lactate dehydrogenase, pyruvate kinase and nucleoside diphosphate kinase coupled spectrophotometric method
[3] = test system: Mycobacterium tuberculosis; assay: Antitubercular activity against Mycobacterium tuberculosis H37Rv ATCC 27294 incubated for 7 to 14 days under GAST (Fe(+)) medium; type: functional; settings: time 7-14 day
[4] = test system: Mycobacterium tuberculosis; assay: Antitubercular activity against Mycobacterium tuberculosis H37Rv ATCC 27294 incubated for 7 to 14 days under 7H9/glucose medium; type: functional; settings: time 7-14 day
[5] = Cytotoxicity against human MRC5 cells measured after 24 hrs by neutral red uptake assay; type: cell-based
[6] = test system: Mycobacterium tuberculosis; assay: Antitubercular activity against Mycobacterium tuberculosis H37Rv ATCC 27294 incubated for 7 to 14 days under GAST (Fe(-)) medium; type: functional; settings: time 7-14 day
[7] = Stability of compound in pH 6.6 ammonium bicarbonate-formic acid buffer assessed as parent compound remaining measured after 24 hrs by LC-MS analysis; type: physicochemical; settings: read-out: Stabilty
[8] = Stability of compound in pH 6.6 ammonium bicarbonate-formic acid buffer assessed as degradation measured up to 6 hrs by LC-MS analysis; type: physicochemical; settings: read-out: Drug degradation
[9] = Stability of compound in pH 6.6 ammonium bicarbonate-formic acid buffer assessed as hydrolysis measured after 24 hrs by LC-MS analysis; type: physicochemical; settings: pH 6.6, 24 h

SMILES | MIC99 [1] [µM] | IC50 ([2]; read-out: IC50) [µM] | MIC99 [3] [µM] | MIC99 [4] [µM] | CC50 at 24 h [5] [µM] | MIC99 [6] [µM] | remaining at 24 h [7] [%] | degraded at 6 h [8] [%] | Stabilty [9] | IC50 [2]
Cc1cn(C2CCN(Cc3ccc(Oc4ccccc4)cc3)CC2)c(=O)[nH]c1=O | > 64 | 29 |  |  |  |  |  |  |  | 
Cc1cn(C2CCN(Cc3cc(Oc4ccc(C(=O)O)c(O)c4)c4ccccc4n3)CC2)c(=O)[nH]c1=O |  | 1.3 | 100 (≈ 50.3 µg/mL) | > 100 | > 64 | ≥ 100 |  |  |  | 
CCc1nc2ccc(Cl)cn2c1C(=O)NCc1ccc(N2CCC(n3cc(C)c(=O)[nH]c3=O)CC2)cc1 |  | 47 | 2.3 (≈ 1.2 µg/mL) | 4.7 (≈ 2.45 µg/mL) | > 64 |  |  |  |  | 
Cc1cn(C2CCN(Cc3ccc4cccc(O)c4n3)CC2)c(=O)[nH]c1=O |  | 23 | > 100 | 75 (≈ 27.5 µg/mL) | 54 | > 100 |  |  |  | 
Cc1cn(C2CCN(Cc3cc(OCCOC(=O)c4ccc(O)c(O)c4)c4ccccc4n3)CC2)c(=O)[nH]c1=O |  | 0.14 | > 100 | ≥ 100 | 6.39 | > 100 |  |  |  | 
Cc1cn(C2CCN(Cc3ccc(CNC(=O)c4cc([N+](=O)[O-])cc([N+](=O)[O-])c4)cc3)CC2)c(=O)[nH]c1=O |  | 48 | 9.4 (≈ 4.91 µg/mL) | 9.4 (≈ 4.91 µg/mL) | > 64 | 6.25 (≈ 3.27 µg/mL) |  |  |  | 
Cc1cn(C2CCN(Cc3cc(Oc4ccc(OC(=O)c5ccc(O)c(O)c5)cc4)c4ccccc4n3)CC2)c(=O)[nH]c1=O |  | 0.18 | 37 (≈ 22 µg/mL) | > 50 |  |  | > 70 | < 10 | Stable | 
Cc1cn(C2CCN(Cc3cc(Oc4ccc(C(=O)NO)cc4)c4ccccc4n3)CC2)c(=O)[nH]c1=O |  | 1 | 50 (≈ 25.1 µg/mL) | > 50 | 32.2 |  |  |  |  | 
CCc1nc2ccc(Cl)cn2c1C(=O)N1CCC(n2cc(C)c(=O)[nH]c2=O)CC1 |  | 879 | > 100 | > 100 | > 64 | > 100 |  |  |  | 
Cc1cn(C2CCN(Cc3cc(Oc4ccc(/C=N/NC(=S)S)c(O)c4)c4ccccc4n3)CC2)c(=O)[nH]c1=O |  | 0.31 | 100 (≈ 57.7 µg/mL) | > 100 | 1.45 | 25 (≈ 14.4 µg/mL) | > 70 | < 10 |  | 
Cc1cn(C2CCN(Cc3cc(NCCOC(=O)c4ccc(O)c(O)c4)c4ccccc4n3)CC2)c(=O)[nH]c1=O |  | 0.24 | > 100 | > 100 | > 64 | 100 (≈ 54.6 µg/mL) | > 70 |  |  | 
Cc1cn(C2CCN(Cc3cc(Oc4ccc(O)cc4)c4ccccc4n3)CC2)c(=O)[nH]c1=O |  | 0.83 | > 100 | ≥ 100 | > 64 | ≥ 100 |  |  |  | 
Cc1cn(C2CCN(Cc3cc(=O)c4ccccc4[nH]3)CC2)c(=O)[nH]c1=O |  | 7.8 | > 100 | > 100 | > 64 | > 100 |  |  |  | 
Cc1cn(C2CCN(c3ccc(CNC(=O)c4ccc([N+](=O)[O-])cc4[N+](=O)[O-])cc3)CC2)c(=O)[nH]c1=O |  |  | 0.78 (≈ 0.397 µg/mL) | 9.4 (≈ 4.78 µg/mL) | > 64 | 1.2 (≈ 0.61 µg/mL) |  |  |  | Nd(Unstable)
Cc1cn(C2CCN(Cc3cccc(-c4ccccn4)n3)CC2)c(=O)[nH]c1=O |  | 34 | > 100 | 12.5 (≈ 4.72 µg/mL) | > 64 | > 100 |  |  |  | 
Cc1cn(C2CCN(Cc3cc(OCCO)c4ccccc4n3)CC2)c(=O)[nH]c1=O |  | 2.4 | > 100 | > 100 | > 64 | > 100 |  |  |  | 
Cc1cn(C2CCN(Cc3cc(NCCO)c4ccccc4n3)CC2)c(=O)[nH]c1=O |  | 0.53 | > 100 | > 100 | > 64 | > 100 |  |  |  | 
NNC(=O)c1ccncc1 [ISONIAZID] |  |  | 0.15 (≈ 0.0206 µg/mL) | 0.15 (≈ 0.0206 µg/mL) |  | 0.15 (≈ 0.0206 µg/mL) |  |  |  | 
